Results published in patent publication US9663503B2, “5-[[4-[[morpholin-2-yl]methylamino]-5-(trifluoromethyl)-2-pyridyl]amino]pyrazine-2-carbonitrile and therapeutic uses thereof” (priority 2012, dated 2017).

Experiments:
HT29 cells [1] = test: Cellular potency in Mitosis Inhibition Assay (MIA), checkpoint abrogation after etoposide; assay type: cell-based; conditions: versus Y-154
Procedure: Assay 2: Cellular Potency in Mitosis Inhibition Assay (MIA)
Checkpoint abrogation by CHK1 kinase function inhibitors in combination with genotoxic agents was assessed using a europium based ELISA assay designed to quantify the number of cells trapped in mitosis after treatment with a genotoxic agent (to induce G2 arrest) followed by a CHK1 inhibitor test compound in combination with nocodazole to abrogate this arrest. HT29 cells were seeded at 10^4 cells per well into 96-well plates in a volume of 160 μL and left to attach for 36 hours. […] After genotoxic drug exposure, the medium was removed and replaced with fresh medium (160 μL). […] CHK1 inhibitor test compounds were added in 40 μL aliquots using quadruplicate wells for each concentration. After 21 hours exposure, the medium was removed and cells were fixed in 4% formaldehyde in phosphate buffered saline (PBS, pH 7.4, pre-cooled to 4° C.) for 30 minutes at 4° C., followed by 100% methanol (pre-cooled to −20° C.) for 10 minutes at ambient temperature. Wells were washed with PBS and blocked with 5% dried milk (Marvel) in Tris-buffered saline (TBS, pH 7.4) at 37° C. for 30 minutes. Each well was washed three times with water containing 0.1% Tween 20. […] Primary antibody was removed and wells were washed with water containing 0.1% Tween 20. […] Europium emissions were counted on a Wallac, Victor2 counter (Perkin-Elmer, Bucks UK).

in vivo = conditions: female Balb/c mice, 10 mg/kg iv and po
Procedure: Assay 5: Oral Bioavailability and Pharmacokinetics in Mice
All work was performed in accordance with the Home Office regulations under the Animals (Scientific Procedures) Act 1986 and according to UKCCCR guidelines for animal experimentation.
CHK1 inhibitor compounds were formulated in 10% DMSO, 1% Tween 20 and 89% sterile saline. Female Balb/c mice (Charles River UK Ltd, Margate, U.K.) were administered intravenously (iv) and orally (po) with 10 mg/kg of CHK1 inhibitor compound. Control animals received the vehicle alone. Groups of 3 mice were injected per timepoint. At 5, 15 and 30 minutes and 1, 2, 4, 6 and 24 hours after dosing, blood was collected by cardiac puncture with heparinised syringes from mice under anaesthesia (halothane/oxygen mix). Following centrifugation (9000×g, 2 minutes, 4° C.) plasma was frozen on dry ice and stored at −80° C. Tissues were excised, snap frozen in liquid nitrogen and stored at −80° C. Thawed plasma samples were extracted by protein precipitation using 3 volumes of methanol containing internal standard. […]. After centrifugation, supernatant was transferred for analysis. Extracted plasma samples were analysed by LC-MS-MS on an Agilent 1200 or 1290 LC coupled to an Agilent 6410 triple quadrupole mass spectrometer for the quantitation of the CHK1 inhibitor compound and internal standard. […]

CHK1 = CHK1 (Homo sapiens (Human), UniProt O14757); test: CHK1 DELFIA assay as described in Collins et al., 2009a; assay type: biochemical
HT29 cells [2] = test: Selectivity in cells for CHK1-dependent checkpoint abrogation versus cytotoxicity (SRB IC50/MIA IC50); assay type: cell-based; conditions: SRB IC50/MIA IC50, both in HT29 cells
Procedure: Assay 3: Assessment of Selectivity in Cells for CHK1-Dependent Checkpoint Abrogation versus Cytotoxicity
Compound cytotoxicity was assessed using a 96 hour sulforhodamine B assay (SRB, Sigma catalog number S9012). HT29 or SW620 cells were seeded at 1.6 to 3.2×10^3 cells per well in 96-well plates in a volume of 160 μL medium and allowed to attach for 36 hours prior to treatment. […] Cells were incubated for 96 hours (four doublings) at 37° C. in a humidified 5% CO2 environment and then fixed and stained with SRB.
The Activity Index (AI), a measure of the selectivity of the CHK1 inhibitor test compounds for effecting CHK1-dependent checkpoint abrogation versus cytotoxicity was calculated from the ratio of the CHK1 inhibitor cytotoxicity IC50 versus the MIA IC50 (i.e., Al=CHK1 inhibitor SRB IC50/MIA IC50), both measured in HT29 cells.

HT29 cells [3] = test: Cellular efficacy in combination with SN38 (SRB potentiation); assay type: cell-based; conditions: SRB IC50/Potentiation IC50, 96 hour, SN38 at its IC50
Procedure: Assay 4: Cellular Efficacy in HT29 or SW620 Colon Carcinoma Cells in Combination with SN38 or Gemcitabine
HT29 or SW620 cells were seeded at 1.6 to 3.2×10^3 cells per well in 96-well plates in a volume of 160 μL medium and allowed to attach for 36 hours prior to treatment.
The Potentiation Index (PI) was calculated as a measure of the ability of the CHK1 inhibitor to enhance SN38 or gemcitabine cytotoxicity and was defined as the ratio of the Cytotoxicity IC50 of the CHK1 inhibitor alone versus the Potentiation IC50 of the CHK1 inhibitor combined with the genotoxic (i.e., PI=CHK1 inhibitor SRB IC50/Potentiation IC50).

Sequence of CHK1 (O14757 whole entry): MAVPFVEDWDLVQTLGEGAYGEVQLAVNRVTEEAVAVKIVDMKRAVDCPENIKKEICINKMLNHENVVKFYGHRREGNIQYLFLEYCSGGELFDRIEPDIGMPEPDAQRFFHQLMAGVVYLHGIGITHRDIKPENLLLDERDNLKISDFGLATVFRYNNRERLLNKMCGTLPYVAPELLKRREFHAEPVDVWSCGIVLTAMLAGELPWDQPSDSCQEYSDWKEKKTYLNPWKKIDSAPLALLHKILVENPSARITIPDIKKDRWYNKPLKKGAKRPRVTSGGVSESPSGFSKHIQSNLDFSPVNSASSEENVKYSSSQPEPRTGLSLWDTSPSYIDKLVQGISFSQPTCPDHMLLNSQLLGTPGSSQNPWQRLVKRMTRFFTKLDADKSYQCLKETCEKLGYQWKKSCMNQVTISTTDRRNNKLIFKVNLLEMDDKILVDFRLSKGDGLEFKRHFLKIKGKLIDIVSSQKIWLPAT

| Compound | more potent than the next most potent compound (Y-154), MIA cellular potency (HT29 cells [1]) | Oral Bioavailability in Mouse (in vivo) [%] | bioavailability (in vivo; female, Balb/c, mouse, in vivo, 10 mg/kg) [%] | IC50 (CHK1) [nM] | Cellular Selectivity (Activity Index) (HT29 cells [2]) [fold] | Cell Efficacy + SN38 in HT29 cells (Potentiation Index) (HT29 cells [3]) [fold] |
| --- | --- | --- | --- | --- | --- | --- |
| N#Cc1cnc(Nc2cc(NC[C@H]3CNCCO3)c(C(F)(F)F)cn2)cn1 [Compound 1, 5-[[4-[[(2R)-Morpholin-2-yl]methylamino]-5-(trifluoromethyl)-2-pyridyl]amino]pyrazine-2-carbonitrile] | approximately 3 fold | 105 | 100 |  |  |  |
| N#Cc1cnc(Nc2cc(NC[C@@H]3CNCCO3)c(C(F)(F)F)cn2)cn1 [Compound 2, 5-[[4-[[(2S)-Morpholin-2-yl]methylamino]-5-(trifluoromethyl)-2-pyridyl]amino]pyrazine-2-carbonitrile] | ~5 fold |  |  |  |  |  |
| N#Cc1cnc(Nc2cc(NCC3CNCCO3)c(C(=O)Nc3ccccc3)cn2)cn1 (stereo not shown) [Compound Y-102] |  |  |  | 20 | 4.6 |  |
| COCc1ccc(-c2cnc(Nc3cnc(C#N)cn3)cc2NC[C@@H]2CNCCO2)cc1 [Compound Y-148] |  |  |  | 13 | 4.4 |  |
| COCCOc1ccc(-c2cnc(Nc3cnc(C#N)cn3)cc2NC[C@@H]2CNCCO2)cc1 [Compound Y-149] |  |  |  | 10 | 3.5 |  |
| COCC#Cc1cnc(Nc2cnc(C#N)cn2)cc1NC[C@@H]1CNCCO1 [Compound Y-154] |  |  |  | 1 | 9.0 | 0.8 |
| COC(C)(C)C#Cc1cnc(Nc2cnc(C#N)cn2)cc1NC[C@@H]1CNCCO1 [Compound Y-155] |  |  |  | 5 |  | 0.9 |
| COCc1ccc(-c2cnc(Nc3cnc(C#N)cn3)cc2NC[C@H]2CNCCO2)cc1 [Compound Y-156] |  |  |  | 10 | 5.4 | 1.6 |
| COCCOc1ccc(-c2cnc(Nc3cnc(C#N)cn3)cc2NC[C@H]2CNCCO2)cc1 [Compound Y-157] |  |  |  | 15 | 6.3 | 2 |
| COCCCc1cnc(Nc2cnc(C#N)cn2)cc1NC[C@H]1CNCCO1 [Compound Y-159] |  |  |  | 23 |  |  |
